Activity calls are given as the source filed them. The rule behind the calls is not given here.
Columns and labels:
Rattus norvegicus [1] = assay: In vivo macrofilaricidal activity against Litomosoides carinii in cotton rats at a dose of 6 mg/kg for 5 days administered i.p.: Inactive; assay type: functional, organism-based; parameters: dose 6 mg/kg
Rattus norvegicus [2] = assay: In vivo macrofilaricidal activity against A. viteae in Mastomys natalensis at a dose of 350 mg/kg for 5 days administered i.p.: Inactive; assay type: functional, organism-based; parameters: dose 350 mg/kg
Rattus norvegicus [3] = organism: Rattus norvegicus; assay: Percentage of sterilization of surviving female worm Acanthocheilonema viteae in Mastomys natalensis: Inactive; assay type: functional, organism-based
Rattus norvegicus [4] = assay: In vivo macrofilaricidal activity against Litomosoides carinii in cotton rats at a dose of 30 mg/kg for 5 days administered i.p.: Inactive; assay type: functional, organism-based; parameters: dose 30 mg/kg
Rattus norvegicus [5] = assay: In vivo microfilaricidal activity against Litomosoides carinii in cotton rats at a dose of 30 mg/kg for 5 days administered i.p.: Inactive; assay type: functional, organism-based; parameters: dose 30 mg/kg
Rattus norvegicus [6] = assay: In vivo macrofilaricidal activity against Acanthocheilonema viteae in Mastomys natalensis at a dose of 50 mg/kg for 5 days administered i.p.; assay type: functional; conditions: route intraperitoneal
Rattus norvegicus [7] = assay: In vivo microfilaricidal activity against A. viteae in Mastomys natalensis at a dose of 50 mg/kg for 5 days administered i.p.: Inactive; assay type: functional, organism-based; parameters: dose 50 mg/kg
Rattus norvegicus [8] = assay: In vivo macrofilaricidal activity against Litomosoides carinii in cotton rats at a dose of 30 mg/kg for 5 days administered i.p.; assay type: functional; conditions: route intraperitoneal
Rattus norvegicus [9] = assay: In vivo macrofilaricidal activity against A. viteae in Mastomys natalensis at a dose of 50 mg/kg for 5 days administered i.p.: Inactive; assay type: functional, organism-based; parameters: dose 50 mg/kg
Rattus norvegicus [10] = organism: Rattus norvegicus; assay: Percentage of sterilization of surviving female worm Acanthocheilonema viteae: Inactive; assay type: functional, organism-based
Rattus norvegicus [11] = organism: Rattus norvegicus; assay: Percentage of sterilization of surviving female worm Acanthocheilonema viteae in Mastomys natalensis; assay type: functional
Rattus norvegicus [12] = assay: In vivo microfilaricidal activity against Litomosoides carinii in cotton rats at a dose of 30 mg/kg for 5 days administered i.p.; assay type: functional; conditions: route intraperitoneal

Structure (SMILES): CCN(CC)C(=O)N1CCN(C)CC1.O=C(O)CC(O)(CC(=O)O)C(=O)O [DIETHYLCARBAMAZINE CITRATE]
- Death (Rattus norvegicus [1]): inactive
- Death (Rattus norvegicus [2]): inactive
- Activity (Rattus norvegicus [3]): inactive

Structure (SMILES): NC(=O)C1NCCc2c1[nH]c1ccccc21 (stereo not given)
- Death (Rattus norvegicus [4]): inactive
- Death (Rattus norvegicus [5]): inactive
- Death (Rattus norvegicus [6]): 84%
- Death (Rattus norvegicus [7]): inactive
- Activity (Rattus norvegicus [3]): inactive

Structure (SMILES): COC(=O)C1NCCc2c1[nH]c1ccccc21 (stereo not given)
- Death (Rattus norvegicus [5]): inactive
- Death (Rattus norvegicus [8]): 81%
- Activity (Rattus norvegicus [3]): inactive
- Death (Rattus norvegicus [9]): inactive

Structure (SMILES): COC(=O)c1nccc2c1[nH]c1ccccc12
- Death (Rattus norvegicus [4]): inactive
- Death (Rattus norvegicus [5]): inactive
- Activity (Rattus norvegicus [10]): inactive
- Death (Rattus norvegicus [9]): inactive

Structure (SMILES): NC(=O)c1nccc2c1[nH]c1ccccc12
- Death (Rattus norvegicus [4]): inactive
- Activity (Rattus norvegicus [11]): 100
- Death (Rattus norvegicus [5]): inactive
- Death (Rattus norvegicus [6]): 50%

Structure (SMILES): N#Cc1[nH]ccc2c3ccccc3nc1-2
- Death (Rattus norvegicus [6]): 50%
- Death (Rattus norvegicus [8]): 78%
- Death (Rattus norvegicus [7]): inactive
- Death (Rattus norvegicus [12]): 59%
- Activity (Rattus norvegicus [3]): inactive

Source: ChEMBL document CHEMBL1128957, “In vivo potent antifilarial -carbolines” (1996)
